Measured values taken from US10851073B2, “Protein tyrosine phosphatase inhibitors and methods of use thereof” (Calico Life Sciences LLC, priority 2019, dated 2020).
pIC50: −log10 of the molar value.

Columns and labels:
[1] = biological target: T1, His tagged PTPN2 (TC45) protein (Homo sapiens, UniProt P17706); assay: Mobility shift assay used to determine potency of PTPN2 inhibitors; format: biochemical; details: enzyme 0.5 nM, substrate 2 μM; read-out: PTPN2 MSA IC50
T1 construct: made in house
T1 sequence (P17706 with tags, fused parts or gaps isoform P17706-2): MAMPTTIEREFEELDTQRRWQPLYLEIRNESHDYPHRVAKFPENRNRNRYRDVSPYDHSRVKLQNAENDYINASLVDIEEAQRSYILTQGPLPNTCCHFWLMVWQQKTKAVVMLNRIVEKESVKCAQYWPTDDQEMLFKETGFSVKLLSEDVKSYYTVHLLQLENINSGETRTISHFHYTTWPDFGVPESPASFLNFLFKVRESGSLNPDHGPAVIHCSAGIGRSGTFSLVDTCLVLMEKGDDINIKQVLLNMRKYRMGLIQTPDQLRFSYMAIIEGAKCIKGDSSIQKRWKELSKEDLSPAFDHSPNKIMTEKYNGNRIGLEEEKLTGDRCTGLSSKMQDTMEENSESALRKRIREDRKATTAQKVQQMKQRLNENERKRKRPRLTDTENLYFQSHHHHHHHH
Procedure, shortened: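 Enzyme (0.5 nM) preincubated with compound (12-point, 1:3 dilution) 10 min at room temperature in 50 mM HEPES pH 7.5, 1 mM EGTA, 10 mM EDTA, 0.01% Tween 20, 2 mM DTT; OG488-labelled phospho-insulin-receptor peptide substrate (2 μM) added for 10 min, then quenched. Microfluidic mobility shift (ex 488/em 530 nm) gave % conversion; IC50 from % inhibition.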

[2] = biological target: T2, His tagged full-length PTPN1 protein (Homo sapiens, UniProt P18031); assay: Mobility shift assay (MSA) used to determine potency of PTPN1 inhibitors; format: biochemical; details: enzyme 0.5 nM, substrate 2 μM
T2 construct: made in house
T2 sequence (P18031 with tags, fused parts or gaps): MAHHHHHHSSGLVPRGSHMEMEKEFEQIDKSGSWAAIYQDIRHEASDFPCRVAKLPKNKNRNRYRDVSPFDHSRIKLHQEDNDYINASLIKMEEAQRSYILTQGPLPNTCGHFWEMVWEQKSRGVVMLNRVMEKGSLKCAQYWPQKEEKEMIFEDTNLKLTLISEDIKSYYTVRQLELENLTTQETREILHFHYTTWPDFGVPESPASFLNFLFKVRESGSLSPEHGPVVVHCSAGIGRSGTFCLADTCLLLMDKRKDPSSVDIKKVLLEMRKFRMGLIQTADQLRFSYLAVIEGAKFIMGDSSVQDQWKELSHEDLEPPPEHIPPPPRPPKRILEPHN
Procedure, shortened: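 Full-length His-tagged human PTPN1 (0.5 nM) was preincubated 10 min at room temperature with compound (12-point, 1:3 dilution) in HEPES pH 7.5 buffer with EGTA, EDTA, Tween 20 and DTT. A 2 μM fluorescent phospho-insulin receptor peptide was then added for 10 min before quench. Mobility-shift % conversion gave % inhibition and IC50.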

SMILES | pIC50 [1] | pIC50 [2]
CC(C)CCN[C@@H]1CCc2cc(O)c(N3CC(=O)NS3(=O)=O)c(F)c2C1 (single isomer, unassigned) [Compound 118] | 8.00 to 9.00 | 8.00 to 9.00
O=C1CN(c2c(O)cc3c(c2F)C[C@H](NCCC2CC2)CC3)S(=O)(=O)N1 (single isomer, unassigned) [Compound 133] | 8.00 to 9.00 | 8.00 to 9.00
CC(C)(CCN[C@@H]1CCc2cc(O)c(N3CC(=O)NS3(=O)=O)c(F)c2C1)C(F)(F)F (single isomer, unassigned) [Compound 177] | > 9.00 | 8.00 to 9.00
O=C1CN(c2c(O)cc3c(c2F)C[C@H](NCCCC(F)F)CC3)S(=O)(=O)N1 (single isomer, unassigned) [Compound 199] | > 9.00 | > 9.00
O=C1CN(c2c(O)cc3c(c2F)C[C@@H](NCCC(F)F)CC3)S(=O)(=O)N1 (single isomer, unassigned) [Compound 259] | 7.00 to 8.00 | 7.00 to 8.00
O=C1CN(c2c(O)cc3c(c2F)C[C@H](NCCC(F)F)CC3)S(=O)(=O)N1 (single isomer, unassigned) [Compound 260] | 8.00 to 9.00 | 8.00 to 9.00
